Experimental findings from US20090069565A1, “NEW INDOLE DERIVATIVES AS FACTOR XA INHIBITORS” (priority 2001, published 2009) are described below.

Read-outs that look alike come from different tables or passages of the source.

The target in this experiment is human factor Xa (Homo sapiens, UniProt P00742). The experiment is described as follows: Factor Xa assay (chromogenic, substrate S-2765).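 Also: purified enzyme preincubated with inhibitor for 10 min before substrate addition, final reaction volume 100 µl.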 The note with it: read-out: Ki(FXa). The experiment is classed as biochemical.
Sequence of human factor Xa (P00742 235-488 limits assumed): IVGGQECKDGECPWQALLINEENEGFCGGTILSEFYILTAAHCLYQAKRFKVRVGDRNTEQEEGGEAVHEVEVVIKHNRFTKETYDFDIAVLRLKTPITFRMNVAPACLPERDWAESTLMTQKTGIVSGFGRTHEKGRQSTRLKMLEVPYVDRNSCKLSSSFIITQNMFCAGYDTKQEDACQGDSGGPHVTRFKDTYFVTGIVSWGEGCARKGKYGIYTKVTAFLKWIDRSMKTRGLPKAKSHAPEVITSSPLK
Sequence of human factor Xa (P00742 41-179 partner limits assumed): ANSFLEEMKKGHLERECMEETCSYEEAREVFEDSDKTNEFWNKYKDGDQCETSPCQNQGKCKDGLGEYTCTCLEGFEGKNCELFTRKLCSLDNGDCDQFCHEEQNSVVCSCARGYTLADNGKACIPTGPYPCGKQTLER

Take `O=C(Cn1c(C(=O)NC2CCN(C3CC3)CC2)cc2ccccc21)Nc1ccc(Cl)cc1` [Example 255, 1-[(4-chloro-phenylcarbamoyl)-methyl]-1H-indole-2-carboxylic acid (1-cyclopropyl-piperidin-4-yl)-amide]: the inhibition constant Ki (in general, the equilibrium dissociation constant of an inhibitor or competing ligand from its target) turned out to be 0.106 µM.

For the compound `O=C(Cn1c(C(=O)N2CCC(N3CCCC3)CC2)cc2ccccc21)Nc1ccc(Cl)cc1` [Example 256, N-(4-chloro-phenyl)-2-[2-(4-pyrrolidin-1-yl-piperidine-1-carbonyl)-indol-1-yl]-acetamide], the Ki was 0.754 µM.

As to `CC(C)N1CCC(NC(=O)c2cc3cc([N+](=O)[O-])ccc3n2CC(=O)Nc2ccc(Cl)cc2)CC1` [Example 257, 1-[(4-chloro-phenylcarbamoyl)-methyl]-5-nitro-1H-indole-2-carboxylic acid (1-isopropyl-piperidin-4-yl)-amide], the Ki amounted to 0.006 µM.

Regarding `CC(C)N1CCC(NC(=O)c2cc3c(Cl)c(N)ccc3n2Cc2cc(-c3ccc(Cl)s3)on2)CC1` [Example 258, 5-amino-4-chloro-1-[5-(5-chloro-thiophen-2-yl)-isoxazol-3-ylmethyl]-1H-indole-2-carboxylic acid (1-isopropyl-piperidin-4-yl)-amide], the Ki is 0.011 µM.

For the compound `N#CCN1CCC(NC(=O)c2cc3ccccc3n2Cc2cc(-c3ccc(Cl)s3)on2)CC1` [Example 259, 1-[5-(5-chloro-thiophen-2-yl)-isoxazol-3-ylmethyl]-1H-indole-2-carboxylic acid (1-cyanomethyl-piperidin-4-yl)-amide], the Ki stood at 0.772 µM.

Regarding `O=C(NC1CCN(CCO)CC1)c1cc2ccccc2n1Cc1cc(-c2ccc(Cl)s2)on1` [Example 260, 1-[5-(5-chloro-thiophen-2-yl)-isoxazol-3-ylmethyl]-1H-indole-2-carboxylic acid [1-(2-hydroxy-ethyl)-piperidin-4-yl]-amide], the Ki (inhibition constant for factor Xa, purified enzyme 0.5 nM, substrate S-2765 140 μM, 25° C., pH 7.8, Ki=IC50/{1+(substrate concentration/Km)}) is 0.131 µM.

As for `COCCN1CCC(NC(=O)c2cc3ccccc3n2Cc2cc(-c3ccc(Cl)s3)on2)CC1` [Example 261, 1-[5-(5-chloro-thiophen-2-yl)-isoxazol-3-ylmethyl]-1H-indole-2-carboxylic acid [1-(2-methoxy-ethyl)-piperidin-4-yl]-amide], the inhibitory constant (Ki) turned out to be 0.139 µM.

As to `NC(=O)CN1CCC(NC(=O)c2cc3ccccc3n2Cc2cc(-c3ccc(Cl)s3)on2)CC1` [Example 262, 1-[5-(5-chloro-thiophen-2-yl)-isoxazol-3-ylmethyl]-1H-indole-2-carboxylic acid (1-carbamoylmethyl-piperidin-4-yl)-amide], the inhibition constant (Ki) is 0.25 µM.

For `CNC(=O)CN1CCC(NC(=O)c2cc3ccccc3n2Cc2cc(-c3ccc(Cl)s3)on2)CC1` [Example 263, 1-[5-(5-chloro-thiophen-2-yl)-isoxazol-3-ylmethyl]-1H-indole-2-carboxylic acid (1-methylcarbamoylmethyl-piperidin-4-yl)-amide], the inhibitory constant (Ki) is 0.58 µM.

In the case of `O=C(NC1CCN(Cc2ncc[nH]2)CC1)c1cc2ccccc2n1Cc1cc(-c2ccc(Cl)s2)on1` [Example 264, 1-[5-(5-chloro-thiophen-2-yl)-isoxazol-3-ylmethyl]-1H-indole-2-carboxylic acid [1-(1H-imidazol-2-ylmethyl)-piperidin-4-yl]-amide], the Ki is 0.559 µM.

On to `Cn1ccnc1CN1CCC(NC(=O)c2cc3ccccc3n2Cc2cc(-c3ccc(Cl)s3)on2)CC1` [Example 265, 1-[5-(5-chloro-thiophen-2-yl)-isoxazol-3-ylmethyl]-1H-indole-2-carboxylic acid [1-(1-methyl-1H-imidazol-2-ylmethyl)-piperidin-4-yl]-amide], for which the Ki came to 0.404 µM.

Regarding `NCC(=O)N1CCC(NC(=O)c2cc3ccccc3n2Cc2cc(-c3ccc(Cl)s3)on2)CC1` [Example 267, 1-[5-(5-chloro-thiophen-2-yl)-isoxazol-3-ylmethyl]-1H-indole-2-carboxylic acid [1-(2-amino-acetyl)-piperidin-4-yl]-amide], the inhibition constant (Ki) turned out to be 0.891 µM.

On to `CCOC(=O)OC(C)OC(=O)c1ccc2c(c1)cc(C(=O)NC1CCN(C(C)C)CC1)n2Cc1cc(-c2ccc(Cl)s2)on1` (centres unmarked) [Example 268, 1-[5-(5-Chloro-thiophen-2-yl)-isoxazol-3-ylmethyl]-2-(1-isopropyl-piperidin-4-ylcarbamoyl)-1H-indole-5-carboxylic acid 1-ethoxycarbonyloxy-ethyl ester], for which the inhibitory constant (Ki) was 0.042 µM.

Regarding `CCOC(=O)OC(C)OC(=O)c1cccc2c1cc(C(=O)NC1CCN(C(C)C)CC1)n2Cc1cc(-c2ccc(Cl)s2)on1` (centres unmarked) [Example 269, 1-[5-(5-Chloro-thiophen-2-yl)-isoxazol-3-ylmethyl]-2-(1-isopropyl-piperidin-4-ylcarbamoyl)-1H-indole-4-carboxylic acid 1-ethoxycarbonyloxy-ethyl ester], the Ki amounted to 0.007 µM.

For the compound `CC(C)N1CCC(NC(=O)c2cc3c(C(=O)OCOC(=O)C(C)(C)C)cccc3n2Cc2cc(-c3ccc(Cl)s3)on2)CC1` [Example 270, 1-[5-(5-Chloro-thiophen-2-yl)-isoxazol-3-ylmethyl]-2-(1-isopropyl-piperidin-4-ylcarbamoyl)-1H-indole-4-carboxylic acid 2,2-dimethyl-propionyloxymethyl ester], the Ki is 0.013 µM.

As for `CC(OC(=O)c1ccc2c(c1)cc(C(=O)NC1CCN(C(C)C)CC1)n2Cc1cc(-c2ccc(Cl)s2)on1)OC(=O)C(C)(C)C` (centres unmarked) [Example 271, 1-[5-(5-Chloro-thiophen-2-yl)-isoxazol-3-ylmethyl]-2-(1-isopropyl-piperidin-4-ylcarbamoyl)-1H-indole-5-carboxylic acid 1-(2,2-dimethyl-propionyloxy)-ethyl ester], the inhibition constant (Ki) was 0.092 µM.

As to `CC(OC(=O)c1cccc2c1cc(C(=O)NC1CCN(C(C)C)CC1)n2Cc1cc(-c2ccc(Cl)s2)on1)OC(=O)C(C)(C)C` (centres unmarked) [Example 272, 1-[5-(5-Chloro-thiophen-2-yl)-isoxazol-3-ylmethyl]-2-(1-isopropyl-piperidin-4-ylcarbamoyl)-1H-indole-4-carboxylic acid 1-(2,2-dimethyl-propionyloxy)-ethyl ester], the inhibition constant Ki turned out to be 0.017 µM.
